Measured values reported in PMC8963105, “A Novel Modulator of the Renin–Angiotensin System, Benzoylaconitine, Attenuates Hypertension by Targeting ACE/ACE2 in Enhancing Vasodilation and Alleviating Vascular Inflammation” (Frontiers in Pharmacology, 2022).

What was measured:
[1] = test system: ACE2; assay: ACE2 expression in aorta of SHRs (Western blot, tissue immunofluorescence); assay type: in vivo, rat; details: oral 14 days
Text: (§1) All three MDAs (BAC, BMC, and BHC) were purchased from Nature-Standard Co., Ltd. (Shanghai, China) and their purities were all over 98%. The anti-hypertensive effects of MDAs were studied in both acute and chronic experiments. The 16-week-old SHRs were used in animal experiments, and each group had six rats. In the acute experiment, drug administration was via i.v. injection. For i.v. injection, the animals were randomly assigned into four groups: vehicle (0.1% DMSO–0.9% salt solution, n = 6), low-dose group (0.6 mg kg^−1 body weight, n = 6), medium-dose group (2 mg kg^−1 body weight, n = 6), and high-dose group (6 mg kg^−1 body weight, n = 6). The drug was administered using a venous catheter. In chronic experiments, the animals were randomly assigned into five groups: vehicle (5% Tween 80–0.9% salt solution, n = 6), captopril group (5 mg kg^−1 body weight, n = 6), low-dose group (3 mg kg^−1 body weight, n = 6), medium-dose group (10 mg kg^−1 body weight, n = 6), and high-dose group (30 mg kg^−1 body weight, n = 6). Oral administration with drug or 5% Tween 80–0.9% salt solution was carried out once a day, and continued for 14 days. […] Blood pressure was recorded in real time. […]
(§2) The cell samples and tissue sample were collected and placed in ice rapidly. […] Protein concentration in cell lysates was measured using a Bio-Rad DC Protein Assay Kit […]. […]

[2] = test system: p-Akt; assay: p-Akt in aorta of SHRs (Western blot); assay type: in vivo, rat; details: vessel of SHRs, oral 14 days
Text: (§3) All three MDAs (BAC, BMC, and BHC) were purchased from Nature-Standard Co., Ltd. (Shanghai, China) and their purities were all over 98%. The anti-hypertensive effects of MDAs were studied in both acute and chronic experiments. The 16-week-old SHRs were used in animal experiments, and each group had six rats. In the acute experiment, drug administration was via i.v. injection. For i.v. injection, the animals were randomly assigned into four groups: vehicle (0.1% DMSO–0.9% salt solution, n = 6), low-dose group (0.6 mg kg^−1 body weight, n = 6), medium-dose group (2 mg kg^−1 body weight, n = 6), and high-dose group (6 mg kg^−1 body weight, n = 6). The drug was administered using a venous catheter. In chronic experiments, the animals were randomly assigned into five groups: vehicle (5% Tween 80–0.9% salt solution, n = 6), captopril group (5 mg kg^−1 body weight, n = 6), low-dose group (3 mg kg^−1 body weight, n = 6), medium-dose group (10 mg kg^−1 body weight, n = 6), and high-dose group (30 mg kg^−1 body weight, n = 6). Oral administration with drug or 5% Tween 80–0.9% salt solution was carried out once a day, and continued for 14 days. […] Blood pressure was recorded in real time.
as §2

[3] = test system: total NO; assay: total NO in serum of SHRs; assay type: in vivo, rat; details: oral 14 days, dose-dependent
Text: (§4) All three MDAs (BAC, BMC, and BHC) were purchased from Nature-Standard Co., Ltd. (Shanghai, China) and their purities were all over 98%. The anti-hypertensive effects of MDAs were studied in both acute and chronic experiments. The 16-week-old SHRs were used in animal experiments, and each group had six rats. In the acute experiment, drug administration was via i.v. injection. For i.v. injection, the animals were randomly assigned into four groups: vehicle (0.1% DMSO–0.9% salt solution, n = 6), low-dose group (0.6 mg kg^−1 body weight, n = 6), medium-dose group (2 mg kg^−1 body weight, n = 6), and high-dose group (6 mg kg^−1 body weight, n = 6). The drug was administered using a venous catheter. […] Blood pressure was recorded in real time.
Total NO levels in serum obtained from SHRs treated with vehicle, BAC, or captopril for 14 days were quantified by using total nitric oxide assay kit (Beyotime, Shanghai, China) as described previously. The absorbance was measured using a microplate reader (Thermo Fisher Scientific) at 540 nm and calculated according to the standard curve. […]

[4] = test system: mice; parameters: method as in Wada et al., 2005; details: ref Wada et al., 2005; cited from earlier work
[5] = test system: Ang I; assay: serum Ang I by ELISA in SHRs after 14-day oral administration; assay type: in vivo, rat; details: oral 14 days
Text: as §4
(§5) Blood samples were collected from the left femoral artery of rats at the end point, followed by centrifugation at 1,000 × g for 15 min at 4°C. […] The concentrations of circulating ACE, ACE2, Ang I, Ang II, Ang (1–7), TNF-α, and IL-6 in serum were measured using the ELISA kits [ACE, cat#xy-R2401c, X-Y Biotechnology, Shanghai, China; ACE2, cat#xy-ACE2-Ra, X-Y Biotechnology; Ang I, cat#xy-E12541, X-Y Biotechnology; Ang II, cat#xy-R1430c, X-Y Biotechnology; Ang (1–7), cat#xy-Ang1-7-Ra, X-Y Biotechnology; TNF-α, cat#GM1149, Servicebio, Shanghai, China; IL-6, cat#GM1154, Servicebio] according to the manufacturer’s instructions. […]

[6] = target: T1, recombinant human ACE (rhACE) (Homo sapiens, UniProt P12821); assay: SPR assay with rhACE; assay type: binding; details: rhACE on chip, 5% DMSO–1.05× PBS
T1 construct: purchased Proteintech
T1 sequence (P12821 30-1306): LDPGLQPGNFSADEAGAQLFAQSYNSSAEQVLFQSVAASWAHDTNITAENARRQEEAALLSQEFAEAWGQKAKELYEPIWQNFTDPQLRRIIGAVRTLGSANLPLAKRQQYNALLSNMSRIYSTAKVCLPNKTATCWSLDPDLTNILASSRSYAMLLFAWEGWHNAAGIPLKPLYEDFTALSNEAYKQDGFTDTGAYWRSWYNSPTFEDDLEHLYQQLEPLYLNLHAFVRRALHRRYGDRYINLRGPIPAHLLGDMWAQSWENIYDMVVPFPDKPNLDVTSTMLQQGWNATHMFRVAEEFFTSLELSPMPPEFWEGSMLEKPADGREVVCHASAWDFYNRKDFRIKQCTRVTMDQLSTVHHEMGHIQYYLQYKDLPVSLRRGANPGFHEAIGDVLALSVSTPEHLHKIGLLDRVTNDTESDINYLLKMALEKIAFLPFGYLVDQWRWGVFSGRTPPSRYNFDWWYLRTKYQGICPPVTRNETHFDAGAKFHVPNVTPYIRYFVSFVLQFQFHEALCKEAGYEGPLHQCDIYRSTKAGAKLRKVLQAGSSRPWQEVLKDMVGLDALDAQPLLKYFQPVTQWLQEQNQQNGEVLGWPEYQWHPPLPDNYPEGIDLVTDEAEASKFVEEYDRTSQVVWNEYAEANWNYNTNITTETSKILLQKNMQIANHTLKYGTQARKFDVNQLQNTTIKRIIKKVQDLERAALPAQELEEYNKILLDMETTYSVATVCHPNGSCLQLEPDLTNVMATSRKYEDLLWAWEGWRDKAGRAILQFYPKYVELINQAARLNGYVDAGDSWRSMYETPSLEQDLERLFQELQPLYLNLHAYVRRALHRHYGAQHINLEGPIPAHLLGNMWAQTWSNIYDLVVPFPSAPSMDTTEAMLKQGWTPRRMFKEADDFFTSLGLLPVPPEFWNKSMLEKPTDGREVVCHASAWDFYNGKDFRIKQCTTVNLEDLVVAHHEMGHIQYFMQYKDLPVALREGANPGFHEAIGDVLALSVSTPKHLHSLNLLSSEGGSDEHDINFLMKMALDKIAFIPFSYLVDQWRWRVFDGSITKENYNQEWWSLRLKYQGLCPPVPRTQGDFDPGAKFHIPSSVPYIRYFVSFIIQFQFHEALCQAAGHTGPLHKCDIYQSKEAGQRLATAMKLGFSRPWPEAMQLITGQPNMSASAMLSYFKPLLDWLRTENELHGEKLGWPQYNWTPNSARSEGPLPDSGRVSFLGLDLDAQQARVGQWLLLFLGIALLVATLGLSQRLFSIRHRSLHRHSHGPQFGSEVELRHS
Protocol: To screen the potential targets of the MDAs in hypertension, a CVDPlatform (www.cbligand.org/CVD) was used as previously reported ([Zhang et al., 2016a]). The results of database screening were verified by virtual docking with Discovery Studio 3.5 (BIOVIA, San Diego, CA, United States) and then validated in the SPR assay. In the SPR assay, a solution of protein standards was prepared, and the concentration of recombinant human ACE (rhACE) protein and rhACE2 (Proteintech, Rosemont, IL, United States) solution was set to 500 μg ml^−1. […] Finally, the level of binding between the proteins and each molecule was determined based on the K d value.

[7] = test system: ACE; assay: ACE expression in aorta of SHRs (Western blot, tissue immunofluorescence); assay type: in vivo, rat; details: oral 14 days
Text: as §1, §2

[8] = test system: Ang (1–7); assay: serum Ang (1–7) by ELISA in SHRs after 14-day oral administration; assay type: in vivo, rat; details: oral 14 days
Text: as §4, §5

[9] = test system: p-eNOS^Ser1177; assay: p-eNOS Ser1177 in aorta of SHRs (Western blot); assay type: in vivo, rat; details: vessel of SHRs, oral 14 days
Text: as §3, §2

CCN1CC2(COC)C(O)CC(OC)C34C5CC6(O)C(OC)C(O)C(O)(C5C6OC(=O)c5ccccc5)C(C(OC)C23)C14 (stereo not drawn) [BAC, Benzoylaconitine]
ACE2 expression in the aorta [1]: no effect
p-Akt [2]: activated
total NO level in serum [3]: increase NO level
oral median lethal dose (LD50) [4]: 1,500 mg kg^−1
level of Ang I in blood [5]: did not change
Kd [6]: 11 µM
ACE expression in the aorta [7]: significantly downregulated
level of Ang (1–7) in blood [8]: significantly increased
p-eNOS^Ser1177 [9]: activated
